Measurements as given in ChEMBL document CHEMBL5634101, “Discovery of NLRP3 inhibitors using machine learning: Identification of a hit compound to treat NLRP3 activation-driven diseases” (Eur J Med Chem, 2023).
The source made the active and inactive calls.

How the values were obtained:
BMDM = assay: Cytotoxicity against C57 mouse BMDM cells assessed as reduction in cell viability upto 50 uM incubated for 24 hrs by CCK8 assay; assay type: toxicity, cell-based
[1] = Stability in human liver microsomes assessed as intrinsic clearance at 1.5 uM measured upto 45 mins in presence of NADPH by LC-MS/MS analysis; assay type: ADME, Microsome; conditions: read-out: CLH
[2] = molecular target: NACHT, LRR and PYD domains-containing protein 3 (Mus musculus) (UniProt Q8R4B8); assay: Inhibition of NLRP3 inflammasome activation in C57 mouse BMDM cells assessed as reduction in IL-1beta secretion at 5 uM preincubated with LPS for 3 hrs followed by compound addition for 30 mins prior to MSU addition and measured after 4 hrs by Western blot analysis; assay type: cell-based; conditions: time 4.5 hrs
Sequence of NACHT, LRR and PYD domains-containing protein 3 (Mus musculus) (Q8R4B8 whole entry, the tested form may be a part): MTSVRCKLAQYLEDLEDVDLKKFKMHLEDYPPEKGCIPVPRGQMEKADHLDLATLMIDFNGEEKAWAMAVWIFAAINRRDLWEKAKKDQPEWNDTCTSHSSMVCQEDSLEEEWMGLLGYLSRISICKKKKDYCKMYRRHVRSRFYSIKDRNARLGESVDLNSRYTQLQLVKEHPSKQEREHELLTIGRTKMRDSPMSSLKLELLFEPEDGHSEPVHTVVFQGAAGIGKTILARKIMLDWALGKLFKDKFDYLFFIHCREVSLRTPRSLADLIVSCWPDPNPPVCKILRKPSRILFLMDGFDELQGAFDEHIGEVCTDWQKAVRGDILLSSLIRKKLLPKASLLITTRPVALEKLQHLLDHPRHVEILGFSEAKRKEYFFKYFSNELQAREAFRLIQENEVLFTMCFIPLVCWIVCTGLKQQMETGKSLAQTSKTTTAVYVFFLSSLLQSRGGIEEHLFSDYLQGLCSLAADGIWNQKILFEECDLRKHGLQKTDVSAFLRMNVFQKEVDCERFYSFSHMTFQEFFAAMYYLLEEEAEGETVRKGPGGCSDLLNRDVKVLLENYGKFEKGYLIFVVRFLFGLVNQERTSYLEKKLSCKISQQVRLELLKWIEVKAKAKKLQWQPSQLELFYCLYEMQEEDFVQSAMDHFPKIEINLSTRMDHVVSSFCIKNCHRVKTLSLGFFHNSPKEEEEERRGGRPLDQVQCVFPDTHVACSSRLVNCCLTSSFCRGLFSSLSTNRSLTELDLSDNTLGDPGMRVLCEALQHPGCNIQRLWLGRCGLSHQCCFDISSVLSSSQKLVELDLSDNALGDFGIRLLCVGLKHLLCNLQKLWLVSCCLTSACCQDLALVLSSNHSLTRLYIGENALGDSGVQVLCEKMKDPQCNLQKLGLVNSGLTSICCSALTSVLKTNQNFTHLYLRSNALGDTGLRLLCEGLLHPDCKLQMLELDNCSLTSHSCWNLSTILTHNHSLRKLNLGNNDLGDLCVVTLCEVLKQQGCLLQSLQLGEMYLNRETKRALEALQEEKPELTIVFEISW

[3] = molecular target: NACHT, LRR and PYD domains-containing protein 3 (Mus musculus) (UniProt Q8R4B8); assay: (§1) Inhibition of NLRP3 inflammasome activation in LPS/Nigericin induced C57 mouse BMDM cells assessed as reduction in ASC expression in cell supernatant at 2.5 to 10 uM preincubated with LPS for 3 hrs followed by compound addition for 30 mins prior to nigericin addition and measured after 30 mins by Western blot analysis; assay type: cell-based; conditions: dose 2.5-10 µM, time 1.0 hrs
Mus musculus [4] = assay: Anti-inflammatory activity in MSU-induced C57 mouse model of acute peritonitis assessed as reduction in IL-1beta expression preadministered intraperitoneally with compound for 3 days followed by MSU injection and measured after 6 hrs by ELISA; assay type: functional, organism-based; conditions: dose 5-30 mg/kg, route ip, time 78.0 hrs
[5] = molecular target: T1, NACHT, LRR and PYD domains-containing protein 3 (Homo sapiens, UniProt Q96P20); assay: Binding affinity to CM5 chip immobilized NLRP3 (unknown origin) assessed as dissociation constant by SPR analysis
T1 sequence (Q96P20 whole entry, the tested form may be a part): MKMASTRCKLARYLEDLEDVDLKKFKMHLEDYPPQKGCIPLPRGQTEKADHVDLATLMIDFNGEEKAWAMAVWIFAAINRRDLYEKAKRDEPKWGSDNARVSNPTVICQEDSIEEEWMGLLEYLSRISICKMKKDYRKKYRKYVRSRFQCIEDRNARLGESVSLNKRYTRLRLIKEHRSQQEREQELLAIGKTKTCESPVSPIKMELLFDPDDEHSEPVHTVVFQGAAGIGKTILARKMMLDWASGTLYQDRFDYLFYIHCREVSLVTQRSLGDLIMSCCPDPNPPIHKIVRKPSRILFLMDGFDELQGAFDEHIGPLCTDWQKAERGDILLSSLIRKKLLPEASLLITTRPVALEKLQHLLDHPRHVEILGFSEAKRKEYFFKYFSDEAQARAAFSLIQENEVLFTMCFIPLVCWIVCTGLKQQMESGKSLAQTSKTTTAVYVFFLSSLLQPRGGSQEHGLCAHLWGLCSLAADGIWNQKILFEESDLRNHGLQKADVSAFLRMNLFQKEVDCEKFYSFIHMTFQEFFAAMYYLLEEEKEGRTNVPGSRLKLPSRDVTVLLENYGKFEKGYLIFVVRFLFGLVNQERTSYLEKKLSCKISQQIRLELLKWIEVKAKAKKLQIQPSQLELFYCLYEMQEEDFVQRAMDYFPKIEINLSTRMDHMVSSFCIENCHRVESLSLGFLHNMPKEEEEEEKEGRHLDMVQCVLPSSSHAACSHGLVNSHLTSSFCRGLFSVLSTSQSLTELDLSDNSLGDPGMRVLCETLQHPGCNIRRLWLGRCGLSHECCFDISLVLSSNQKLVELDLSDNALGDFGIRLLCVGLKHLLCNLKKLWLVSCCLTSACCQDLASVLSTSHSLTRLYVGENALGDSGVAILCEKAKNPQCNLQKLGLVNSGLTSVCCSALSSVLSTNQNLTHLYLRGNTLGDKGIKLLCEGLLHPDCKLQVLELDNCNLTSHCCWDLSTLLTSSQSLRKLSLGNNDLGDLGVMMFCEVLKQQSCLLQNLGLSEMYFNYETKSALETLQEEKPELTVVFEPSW

Mus musculus [6] = assay: Anti-inflammatory activity in MSU-induced C57 mouse model of gouty arthritis assessed as reduction in AUC of foot swelling at 30 mg/kg, ip preadministered with compound for 3 days followed by MSU injection and measured after 24 hrs; assay type: functional, organism-based; conditions: time 4.0 day
[7] = molecular target: NACHT, LRR and PYD domains-containing protein 3 (Mus musculus) (UniProt Q8R4B8); assay: as §1, with “pro-IL-1beta” for “ASC”; assay type: cell-based; conditions: dose 2.5-10 µM, time 1.0 hrs
[8] = molecular target: T1, NACHT, LRR and PYD domains-containing protein 3; assay: Inhibition of NLRP3 inflammasome activation in […]-differentiated human THP-1 cells assessed as effect on potassium efflux at 2.5 to 10 uM preincubated with LPS for 3 hrs followed by compound addition for 30 mins prior to nigericin addition and measured after 30 mins by fluorescence based analysis; assay type: cell-based; conditions: dose 2.5-10 µM, time 1.0 hrs
Mus musculus [9] = assay: Anti-inflammatory activity in MSU-induced C57 mouse model of gouty arthritis assessed as reduction in foot swelling at 10 to 30 mg/kg, ip preadministered with compound for 3 days followed by MSU injection and measured after 24 hrs; assay type: functional, organism-based; conditions: dose 10-30 mg/kg, time 4.0 day
[10] = molecular target: NACHT, LRR and PYD domains-containing protein 3 (Mus musculus) (UniProt Q8R4B8); assay: Inhibition of NLRP3 inflammasome assembly in C57 mouse BMDM cells assessed as reduction in higher order complex cross-linking at 2.5 to 10 uM preincubated with LPS for 3 hrs followed by compound addition for 30 mins prior to nigericin addition and measured after 30 mins by ASC oligomerization based blotting analysis; assay type: cell-based; conditions: dose 2.5-10 µM, time 1.0 hrs
Mus musculus [11] = assay: Analgesic activity in MSU-induced C57 mouse model of gouty arthritis assessed as increase in pain threshold at 10 to 30 mg/kg, ip preadministered with compound for 3 days followed by MSU injection and measured after 24 hrs by von frey test; assay type: functional, organism-based; conditions: dose 10-30 mg/kg, time 4.0 day
[12] = molecular target: T1, NACHT, LRR and PYD domains-containing protein 3; assay: Inhibition of NLRP3 inflammasome activation in […]-differentiated human THP-1 cells assessed as effect on chloride efflux at 2.5 to 10 uM preincubated with LPS for 3 hrs followed by compound addition for 30 mins prior to nigericin addition and measured after 30 mins by fluorescence based analysis; assay type: cell-based; conditions: dose 2.5-10 µM, time 1.0 hrs
Mus musculus [13] = assay: Anti-inflammatory activity in LPS-induced C57 sepsis mouse model assessed as reduction in inflammatory infiltration in liver at 10 to 30 mg/kg, ip preadministered with compound for 30 mins followed by LPS stimulation and measured after 6 hrs by H&E staining based analysis; assay type: functional, organism-based; conditions: dose 10-30 mg/kg, time 6.5 hrs
[14] = molecular target: T2, Interferon-inducible protein AIM2 (Mus musculus) (UniProt Q91VJ1); assay: Inhibition of AIM2 inflammasome activation in C57 mouse BMDM cells assessed as reduction in caspase-1 maturation at 5 uM preincubated with LPS for 3 hrs followed by poly(dA:dT) stimulation for 4 hrs by Western blot analysis; assay type: cell-based
T2 sequence (whole entry): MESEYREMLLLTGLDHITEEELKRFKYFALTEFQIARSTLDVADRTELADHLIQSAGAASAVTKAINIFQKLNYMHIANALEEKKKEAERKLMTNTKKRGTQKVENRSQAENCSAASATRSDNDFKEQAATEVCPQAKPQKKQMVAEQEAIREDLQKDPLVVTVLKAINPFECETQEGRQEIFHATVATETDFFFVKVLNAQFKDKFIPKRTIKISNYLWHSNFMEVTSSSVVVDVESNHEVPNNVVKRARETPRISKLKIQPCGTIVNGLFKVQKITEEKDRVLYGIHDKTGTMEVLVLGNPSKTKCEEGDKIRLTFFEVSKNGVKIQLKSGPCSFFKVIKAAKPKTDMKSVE

[15] = molecular target: NACHT, LRR and PYD domains-containing protein 3 (Mus musculus) (UniProt Q8R4B8); assay: Inhibition of NLRP3 inflammasome activation in C57 mouse BMDM cells assessed as reduction in caspase-1 maturation at 5 uM preincubated with LPS for 3 hrs followed by compound addition for 30 mins prior to MSU addition and measured after 4 hrs by Western blot analysis; assay type: cell-based; conditions: time 4.5 hrs
[16] = molecular target: NACHT, LRR and PYD domains-containing protein 3 (Mus musculus) (UniProt Q8R4B8); assay: Inhibition of NLRP3 inflammasome activation in C57 mouse BMDM cells assessed as reduction in IL-1beta secretion at 5 uM preincubated with LPS for 3 hrs followed by compound addition for 30 mins prior to nigericin addition and measured after 30 mins by Western blot analysis; assay type: cell-based; conditions: time 1.0 hrs
[17] = molecular target: NACHT, LRR and PYD domains-containing protein 3 (Mus musculus) (UniProt Q8R4B8); assay: Inhibition of NLRP3 inflammasome assembly in C57 mouse BMDM cells assessed as effect on NEK7 binding at 2.5 to 10 uM preincubated with LPS for 3 hrs followed by compound addition for 30 mins prior to nigericin addition and measured after 30 mins by immunoprecipitation; assay type: cell-based; conditions: dose 2.5-10 µM, time 1.0 hrs
[18] = molecular target: NACHT, LRR and PYD domains-containing protein 3 (Mus musculus) (UniProt Q8R4B8); assay: Inhibition of NLRP3 inflammasome activation in C57 mouse BMDM cells assessed as reduction in IL-1beta secretion at 5 uM preincubated with LPS for 3 hrs followed by compound addition for 30 mins prior to ATP addition and measured after 30 mins by Western blot analysis; assay type: cell-based; conditions: time 1.0 hrs
HEK-293T = assay: Cytotoxicity against HEK293T cells assessed as reduction in cell viability upto 50 uM incubated for 24 hrs by CCK8 assay; assay type: toxicity, cell-based; conditions: human

## COc1ccc(N2C(=O)/C(=C\c3ccccc3C(F)(F)F)SC2=S)cc1
BMDM
  Activity: Non-Toxic
[1]
  CLint scaled at 1.5 µM: 11.2 mL/min/kg
[2]
  inhibition: Active
[3]
  inhibition: inactive
Mus musculus [4]
  Activity: Dose-Dependent Effect
[5]
  Kd: 7.2 µM
Mus musculus [6]
  Activity: Active
[7]
  inhibition: inactive
[8]
  inhibition: inactive
Mus musculus [9]
  Activity: Active
[10]
  inhibition: Active
Mus musculus [11]
  Activity: Active
[12]
  inhibition: inactive
Mus musculus [13]
  Activity: Active
[14]
  inhibition: inactive
[15]
  inhibition: Active
[16]
  inhibition: Active
[17]
  inhibition: Active
[18]
  inhibition: Active
HEK-293T
  Activity: Non-Toxic
